Measurements from ChEMBL document CHEMBL4308841, “Synthesis, in vitro antiproliferative activity, and kinase inhibitory effects of pyrazole-containing diarylureas and diarylamides” (Eur J Med Chem, 2018).

Tests used:
M14 = assay: Growth inhibition of human M14 cells assessed as cell growth at 0.01 uM incubated for 48 hrs by sulforhodamine B assay relative to control; format: functional; settings: M14, 48 h, read-out: Activity
SNB-75 = assay: Growth inhibition of human SNB75 cells assessed as cell growth at 0.1 uM incubated for 48 hrs by sulforhodamine B assay relative to control; format: functional; settings: SNB-75, 48 h, read-out: Activity
MDA-MB-468 = assay: Growth inhibition of human MDA-MB-468 cells assessed as cell growth at 0.1 uM incubated for 48 hrs by sulforhodamine B assay relative to control; format: functional; settings: MDA-MB-468, 48 h, read-out: Activity
BT-549 = assay: Growth inhibition of human BT549 cells assessed as cell growth at 1 uM incubated for 48 hrs by sulforhodamine B assay relative to control; format: functional; settings: BT-549, 48 h, read-out: Activity
OVCAR-8 = assay: Growth inhibition of human OVCAR8 cells assessed as cell growth at 0.1 uM incubated for 48 hrs by sulforhodamine B assay relative to control; format: functional; settings: OVCAR-8, 48 h, read-out: Activity
DU-145 [1] = assay: Growth inhibition of human DU145 cells assessed as cell growth at 0.1 uM incubated for 48 hrs by sulforhodamine B assay relative to control; format: functional; settings: DU-145, 48 h, read-out: Activity
OVCAR-4 = assay: Growth inhibition of human OVCAR4 cells incubated for 48 hrs by sulforhodamine B assay; format: functional, cell-based; settings: OVCAR-4, 48 h
RXF 393 = assay: Growth inhibition of human RXF393 cells incubated for 48 hrs by sulforhodamine B assay; format: functional, cell-based; settings: RXF 393, 48 h
SF-295 = assay: Growth inhibition of human SF295 cells assessed as cell growth at 0.01 uM incubated for 48 hrs by sulforhodamine B assay relative to control; format: functional; settings: SF-295, 48 h, read-out: Activity
HT-29 = assay: Growth inhibition of human HT-29 cells assessed as cell growth at 1 uM incubated for 48 hrs by sulforhodamine B assay relative to control; format: functional; settings: HT-29, 48 h, read-out: Activity
NCI-H460 = assay: Growth inhibition of human NCI-H460 cells incubated for 48 hrs by sulforhodamine B assay; format: functional, cell-based; settings: NCI-H460, 48 h
SK-MEL-28 = assay: Growth inhibition of human SK-MEL-28 cells assessed as cell growth at 100 uM incubated for 48 hrs by sulforhodamine B assay relative to control; format: functional; settings: SK-MEL-28, 48 h, read-out: Activity
SF-539 = assay: Growth inhibition of human SF539 cells assessed as cell growth at 0.1 uM incubated for 48 hrs by sulforhodamine B assay relative to control; format: functional; settings: SF-539, 48 h, read-out: Activity
KM12 [2] = assay: Growth inhibition of human KM12 cells assessed as cell growth at 0.1 uM incubated for 48 hrs by sulforhodamine B assay relative to control; format: functional; settings: KM12, 48 h, read-out: Activity
CAKI-1 = assay: Growth inhibition of human Caki1 cells assessed as cell growth at 100 uM incubated for 48 hrs by sulforhodamine B assay relative to control; format: functional; settings: CAKI-1, 48 h, read-out: Activity
DU-145 [3] = assay: Growth inhibition of human DU145 cells incubated for 48 hrs by sulforhodamine B assay; format: functional, cell-based; settings: DU-145, 48 h
COLO 205 = assay: Growth inhibition of human COLO205 cells assessed as cell growth at 1 uM incubated for 48 hrs by sulforhodamine B assay relative to control; format: functional; settings: COLO 205, 48 h, read-out: Activity
KM12 [4] = assay: Growth inhibition of human KM12 cells assessed as cell growth at 0.01 uM incubated for 48 hrs by sulforhodamine B assay relative to control; format: functional; settings: KM12, 48 h, read-out: Activity
SK-OV-3 = assay: Growth inhibition of human SKOV3 cells incubated for 48 hrs by sulforhodamine B assay; format: functional, cell-based; settings: SK-OV-3, 48 h
OVCAR-3 = assay: Growth inhibition of human OVCAR3 cells incubated for 48 hrs by sulforhodamine B assay; format: functional, cell-based; settings: OVCAR-3, 48 h
PC-3 = assay: Growth inhibition of human PC3 cells assessed as cell growth at 1 uM incubated for 48 hrs by sulforhodamine B assay relative to control; format: functional; settings: PC-3, 48 h, read-out: Activity
NCI-H522 = assay: Growth inhibition of human NCI-H522 cells assessed as cell growth at 10 uM incubated for 48 hrs by sulforhodamine B assay relative to control; format: functional; settings: NCI-H522, 48 h, read-out: Activity
NCI-H23 = assay: Growth inhibition of human NCI-H23 cells assessed as cell growth at 1 uM incubated for 48 hrs by sulforhodamine B assay relative to control; format: functional; settings: NCI-H23, 48 h, read-out: Activity
SW-620 = assay: Growth inhibition of human SW620 cells assessed as cell growth at 0.01 uM incubated for 48 hrs by sulforhodamine B assay relative to control; format: functional; settings: SW-620, 48 h, read-out: Activity
SF-268 = assay: Growth inhibition of human SF268 cells assessed as cell growth at 0.01 uM incubated for 48 hrs by sulforhodamine B assay relative to control; format: functional; settings: SF-268, 48 h, read-out: Activity
K562 = assay: Growth inhibition of human K562 cells assessed as cell growth at 0.1 uM incubated for 48 hrs by sulforhodamine B assay relative to control; format: functional; settings: K562, 48 h, read-out: Activity
RPMI-8226 = assay: Growth inhibition of human RPMI8226 cells assessed as cell growth at 100 uM incubated for 48 hrs by sulforhodamine B assay relative to control; format: functional; settings: RPMI-8226, 48 h, read-out: Activity
SNB-19 = assay: Growth inhibition of human SNB19 cells incubated for 48 hrs by sulforhodamine B assay; format: functional, cell-based; settings: SNB-19, 48 h
[5] = read-out: LC50 (the source's name)
[6] = read-out: pLC50 (the source's name) (converted)

COc1cc(Cl)cc(-c2nn(-c3cccc(NC(=O)Nc4cccc(C(F)(F)F)c4)c3)cc2-c2ccncc2)c1
growth at 0.01 µM (M14): 98%
growth at 0.1 µM (SNB-75): 55%
growth at 0.1 µM (MDA-MB-468): 92%
growth at 1 µM (BT-549): 93%
growth at 0.1 µM (OVCAR-8): 99%
growth at 0.1 µM (DU-145 [1]): 99%
GI50 (OVCAR-4; read-out: GI50): 2.54 µM
CC50 (OVCAR-4; [5]): > 100 µM
TGI (OVCAR-4; read-out: TGI): 38.8 µM
GI50 (OVCAR-4; read-out: pGI50 (converted)): 2.51 µM
CC50 (OVCAR-4; [6]): > 100 µM
TGI (OVCAR-4; read-out: pTGI (converted)): 38.9 µM
LC50 (RXF 393): 36.3 µM
GI50 (RXF 393; read-out: GI50): 1.4 µM
TGI (RXF 393; read-out: TGI): 43.5 µM
GI50 (RXF 393; read-out: pGI50 (converted)): 1.41 µM
TGI (RXF 393; read-out: pTGI (converted)): 4.37 µM
growth at 0.01 µM (SF-295): 94%
growth at 1 µM (HT-29): 65%
GI50 (NCI-H460; read-out: GI50): 0.84 µM
CC50 (NCI-H460; [5]): > 100 µM
TGI (NCI-H460; read-out: TGI): 45.8 µM
CC50 (NCI-H460; [6]): > 100 µM
growth at 100 µM (SK-MEL-28): -25%
growth at 0.1 µM (SF-539): 93%
growth at 0.1 µM (KM12 [2]): 95%
growth at 100 µM (CAKI-1): -20%
GI50 (DU-145 [3]; read-out: GI50): 2.61 µM
CC50 (DU-145 [3]; [5]): > 100 µM
TGI (DU-145 [3]; read-out: TGI): > 100 µM
GI50 (DU-145 [3]; read-out: pGI50 (converted)): 2.63 µM
CC50 (DU-145 [3]; [6]): > 100 µM
TGI (DU-145 [3]; read-out: pTGI (converted)): > 100 µM
growth at 1 µM (COLO 205): 79%
growth at 0.01 µM (KM12 [4]): 97%
GI50 (SK-OV-3; read-out: GI50): 3.61 µM
CC50 (SK-OV-3; [5]): > 100 µM
TGI (SK-OV-3; read-out: TGI): 55.4 µM
GI50 (SK-OV-3; read-out: pGI50 (converted)): 3.63 µM
CC50 (SK-OV-3; [6]): > 100 µM
TGI (SK-OV-3; read-out: pTGI (converted)): 58.9 µM
IC50 (OVCAR-3): 0.59 µM
GI50 (OVCAR-3; read-out: GI50): 0.502 µM
CC50 (OVCAR-3; [5]): > 100 µM
TGI (OVCAR-3; read-out: TGI): 45.7 µM
GI50 (OVCAR-3; read-out: pGI50 (converted)): 0.589 µM
CC50 (OVCAR-3; [6]): > 100 µM
TGI (OVCAR-3; read-out: pTGI (converted)): 4.57 µM
growth at 1 µM (PC-3): 27%
growth at 10 µM (NCI-H522): -18.6%
growth at 1 µM (NCI-H23): 71%
growth at 0.01 µM (SW-620): 103%
growth at 0.01 µM (SF-268): 97%
growth at 0.1 µM (K562): 94%
growth at 100 µM (RPMI-8226): -43%
GI50 (SNB-19; read-out: GI50): 2.77 µM
CC50 (SNB-19; [5]): > 100 µM
TGI (SNB-19; read-out: TGI): 35.9 µM
GI50 (SNB-19; read-out: pGI50 (converted)): 2.75 µM
CC50 (SNB-19; [6]): > 100 µM
TGI (SNB-19; read-out: pTGI (converted)): 35.5 µM

COc1cc(Cl)cc(-c2nn(-c3cccc(NC(=O)Nc4ccc(Cl)c(Cl)c4)c3)cc2-c2ccncc2)c1
growth at 0.01 µM (M14): 97%
growth at 0.1 µM (SNB-75): 90%
growth at 0.1 µM (MDA-MB-468): 97%
growth at 1 µM (BT-549): 92%
growth at 0.1 µM (OVCAR-8): 101%
growth at 0.1 µM (DU-145 [1]): 97%
GI50 (OVCAR-4; read-out: GI50): 2 µM
CC50 (OVCAR-4; [5]): > 100 µM
TGI (OVCAR-4; read-out: TGI): 53.8 µM
GI50 (OVCAR-4; read-out: pGI50 (converted)): 2.82 µM
CC50 (OVCAR-4; [6]): > 100 µM
TGI (OVCAR-4; read-out: pTGI (converted)): 53.7 µM
LC50 (RXF 393): > 100 µM
GI50 (RXF 393; read-out: GI50): 1.96 µM
TGI (RXF 393; read-out: TGI): 72.5 µM
GI50 (RXF 393; read-out: pGI50 (converted)): 1.95 µM
TGI (RXF 393; read-out: pTGI (converted)): 7.24 µM
growth at 0.01 µM (SF-295): 87%
growth at 1 µM (HT-29): 62%
GI50 (NCI-H460; read-out: GI50): 2.27 µM
CC50 (NCI-H460; [5]): > 100 µM
TGI (NCI-H460; read-out: TGI): 13.9 µM
GI50 (NCI-H460; read-out: pGI50 (converted)): 2.29 µM
CC50 (NCI-H460; [6]): > 100 µM
TGI (NCI-H460; read-out: pTGI (converted)): 13.8 µM
growth at 100 µM (SK-MEL-28): -7%
growth at 0.1 µM (SF-539): 92%
growth at 0.1 µM (KM12 [2]): 92%
growth at 100 µM (CAKI-1): -8%
GI50 (DU-145 [3]; read-out: GI50): 3 µM
CC50 (DU-145 [3]; [5]): > 100 µM
TGI (DU-145 [3]; read-out: TGI): > 100 µM
GI50 (DU-145 [3]; read-out: pGI50 (converted)): 3.89 µM
CC50 (DU-145 [3]; [6]): > 100 µM
TGI (DU-145 [3]; read-out: pTGI (converted)): > 100 µM
growth at 1 µM (COLO 205): 91%
growth at 0.01 µM (KM12 [4]): 96%
GI50 (SK-OV-3; read-out: GI50): 3.5 µM
CC50 (SK-OV-3; [5]): > 100 µM
TGI (SK-OV-3; read-out: TGI): 57 µM
GI50 (SK-OV-3; read-out: pGI50 (converted)): 3.63 µM
CC50 (SK-OV-3; [6]): > 100 µM
TGI (SK-OV-3; read-out: pTGI (converted)): 87.1 µM
IC50 (OVCAR-3): 1.56 µM
GI50 (OVCAR-3; read-out: GI50): 1.56 µM
CC50 (OVCAR-3; [5]): > 100 µM
TGI (OVCAR-3; read-out: TGI): 29.4 µM
GI50 (OVCAR-3; read-out: pGI50 (converted)): 1.55 µM
CC50 (OVCAR-3; [6]): > 100 µM
TGI (OVCAR-3; read-out: pTGI (converted)): 29.5 µM
growth at 1 µM (PC-3): 54%
growth at 10 µM (NCI-H522): -19%
growth at 1 µM (NCI-H23): 89%
growth at 0.01 µM (SW-620): 100%
growth at 0.01 µM (SF-268): 95%
growth at 0.1 µM (K562): 58%
growth at 100 µM (RPMI-8226): -34%
GI50 (SNB-19; read-out: GI50): 3.51 µM
CC50 (SNB-19; [5]): > 100 µM
TGI (SNB-19; read-out: TGI): > 100 µM
GI50 (SNB-19; read-out: pGI50 (converted)): 3.55 µM
CC50 (SNB-19; [6]): > 100 µM
TGI (SNB-19; read-out: pTGI (converted)): > 100 µM
